# Columns and labels:
# [1] = target: T1, recombinant human 17β-HSD1 (Homo sapiens, UniProt P14061); test: Inhibition of recombinant human 17β-HSD1 (conversion of 3H-estrone to estradiol, HPLC); format: biochemical; conditions: inhibitor 1 μM; 30 nM estrone, 1 mM NADPH, 30 min at RT; read-out: 17β-HDS1 Inhibition % at 1 μM
# T1 construct: made in house; host or cells: Sd9 (Sf9) insect cells, baculovirus (Bac to Bac Expression System); microsomal fraction
# T1 sequence (P14061 1-328): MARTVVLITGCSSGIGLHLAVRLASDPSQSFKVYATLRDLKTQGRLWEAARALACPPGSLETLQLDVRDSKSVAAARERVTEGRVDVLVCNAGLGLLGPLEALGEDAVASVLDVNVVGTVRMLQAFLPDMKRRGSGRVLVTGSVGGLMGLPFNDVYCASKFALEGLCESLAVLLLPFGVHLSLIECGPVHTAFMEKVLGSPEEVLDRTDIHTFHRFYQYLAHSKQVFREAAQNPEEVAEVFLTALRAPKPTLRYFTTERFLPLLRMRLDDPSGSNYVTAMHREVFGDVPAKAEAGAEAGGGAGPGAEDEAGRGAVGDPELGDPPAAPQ
# Experimental: 17β-HSD1 production and isolation: Recombinant baculovirus was generated by the “Bac to Bac Expression System” (Invitrogen). Recombinant bacmid was transfected to Sd9 insect cells using “Cellfectin Reagent” (Invitrogen). 60 h later cells were harvested; the microsomal fraction was isolated as described by Puranen, T. J., Poutanen, M. H., Peltoketo, H. E., Vihko, P. T. and Vihko, R. K. (1994) Site-directed mutagenesis of the putative active site of human 17 β-hydroxysteroid dehydrogenase type 1. Biochem. J. 304: 289-293. Aliquots were stored frozen until determination of enzymatic activity.
# Assay—Inhibition of recombinant human 17β-HSD1: Recombinant protein (1 μg/ml) was incubated in 20 mM KH2PO4 pH 7.4 with 30 nM estrone (including 800 000 cpm/ml of ^3H-estrone) and 1 mM NADPH for 30 min at RT, in the presence of the potential inhibitor at concentrations 1 μM or 0.1 μM. Inhibitor stock solutions were prepared in DMSO. Final concentration of DMSO was adjusted to 1% in all samples. The enzyme reaction was stopped by addition of 10% trichloroacetic acid (final concentration). Samples were centrifuged in a microtiter plate at 4000 rpm for 10 min. Supernatants were applied to reverse phase HPLC on a Waters Symmetry C18 column, equipped with a Waters Sentry Guard column. Isocratic HPLC runs were performed at RT at a flow rate of 1 ml/min in acetonitrile:water 48:52 as running solvent. Radioactivity was monitored in the eluate by a Packard Flow Scintillation Analyzer. Total radioactivity for estrone and estradiol were determined in each sample and percent conversion of estrone to estradiol was calculated according to the following formula:
# (§1) Percent inhibition was calculated flowingly: % inhibition=100−% conversion
# [2] = target: T2, recombinant human 17β-HSD2 (Homo sapiens, UniProt P37059); test: Inhibition of recombinant human 17β-HSD2 (conversion of 3H-estradiol to estrone, HPLC); format: biochemical; conditions: inhibitor 1 μM; 50 nM estradiol, 1 mM NADH, 30 min at RT
# T2 construct: made in house; host or cells: Sd9 (Sf9) insect cells, baculovirus (Bac to Bac Expression System); fractionated cell extract
# T2 sequence (P37059 1-387): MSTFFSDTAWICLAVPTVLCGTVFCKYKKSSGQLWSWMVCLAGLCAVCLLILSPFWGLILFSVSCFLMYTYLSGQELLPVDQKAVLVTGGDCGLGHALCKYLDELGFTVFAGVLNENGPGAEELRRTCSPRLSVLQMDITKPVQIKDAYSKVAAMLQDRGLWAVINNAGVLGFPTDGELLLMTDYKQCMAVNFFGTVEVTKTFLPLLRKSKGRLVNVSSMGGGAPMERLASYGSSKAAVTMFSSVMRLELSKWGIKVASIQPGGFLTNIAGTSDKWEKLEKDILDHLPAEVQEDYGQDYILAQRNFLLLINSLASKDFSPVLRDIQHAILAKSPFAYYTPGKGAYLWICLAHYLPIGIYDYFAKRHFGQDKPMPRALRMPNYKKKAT
# Experimental: 17β-HSD2 production and isolation: Similarly to 17β-HSD1 the Recombinant baculovirus was generated by the “Bac to Bac Expression System” (Invitrogen). Recombinant bacmid was transfected to Sd9 insect cells using “Cellfectin Reagent” (Invitrogen). 60 h later cells were harvested and supernatant were fractionated by the following protocol: • cells were dissolved into 40 ml of A-buffer (40 mM TRIS, pH8.0, 20% glycerol, 20 μM NAD, 0.4 mM PMSF, 150 mM NaCl, 0.5% dodecyl-β-maltoside+protease inhibitor cocktail) • cells were sonicated • lysate was incubated on ice for 15 min • lysate was centrifuged 5000 rpm 15 min, +4° C. • centrifugation of the supernatant 180 000 g 30 min, +4° C. • pellet was dissolved into 8 ml of A-buffer • not resuspended material was removed by centrifugation 5000 rpm 15 min, +4° C. • the clear supernatant was divided into 100 μl aliquots and were stored frozen until determination of enzymatic activity.
# The amount of 17β-HSD2 was analysed by immunoblotting and total protein concentration of each extract batch was determined.
# Assay—Inhibition of recombinant human 17β-HSD2: Recombinant protein (4 μg/ml) was incubated in 20 mM KH2PO4 pH 8.5 with 50 nM estradiol (including 800 000 cpm/ml of ^3H-estradiol) and 1 mM NADH for 30 min at RT, in the presence of the potential inhibitor at concentrations 1 μM or 0.1 μM. Inhibitor stock solutions were prepared in DMSO. Final concentration of DMSO was adjusted to 1% in all samples. The enzyme reaction was stopped by addition of 10% trichloroacetic acid (final concentration). Samples were centrifuged in a microtiter plate at 4000 rpm for 10 min. Supernatants were applied to reverse phase HPLC on a Waters Symmetry C18 column, equipped with a Waters Sentry Guard column. Isocratic HPLC runs were performed at RT at a flow rate of 1 ml/min in acetonitrile:water 48:52 as running solvent. Radioactivity was monitored in the eluate by a Packard Flow Scintillation Analyzer. Total radioactivity for estrone and estradiol were determined in each sample and percent conversion of estradiol to estrone was calculated according to the following formula:
# as §1
smiles,measurement,setting,value
"Cc1cnc(NC(=O)CC[C@@H]2C/C(=N\OCC(=O)O)[C@@]3(C)CCC4c5cc([N+](=O)[O-])c(O)cc5CCC4C23)s1 (stereo partly drawn) [Compound 111, [(13S,15R)-3-Hydroxy-13-methyl-2-nitro-15-[2-(5-methylthiazol-2-ylcarbamoyl)-ethyl]-6,7,8,9,11,12,13,14,15,16-decahydro-cyclopenta[a]phenanthren-(17E)-ylideneaminooxy]-acetic acid]",inhibition at 1 µM,[1],55%
same,inhibition at 1 µM,[2],0%
"Cc1cnc(NC(=O)CC[C@@H]2C/C(=N\CC(C)C)[C@@]3(C)CCC4c5ccc(O)cc5CCC4C23)s1 (stereo partly drawn) [Compound 121, 3-{(13S,15R)-3-Hydroxy-17-[(E)-isobutylimino]-13-methyl-7,8,9,11,12,13,14,15,16,17-decahydro-6H-cyclopenta[a]phenanthren-15-yl}-N-(5-methylthiazol-2-yl)propionamide]",inhibition at 1 µM,[1],94%
same,inhibition at 1 µM,[2],7%
"Cc1cnc(NC(=O)CC[C@@H]2C/C(=N\OCC(=O)O)[C@@]3(C)CCC4c5ccc(O)cc5CCC4C23)s1 (stereo partly drawn) [Compound 109, [(13S,15R)-3-Hydroxy-13-methyl-15-[2-(5-methylthiazol-2-ylcarbamoyl)-ethyl]-6,7,8,9,11,12,13,14,15,16-decahydro-cyclopenta[a]phenanthren-(17E)-ylideneaminooxy]-acetic acid]",inhibition at 1 µM,[1],56%
same,inhibition at 1 µM,[2],0%
"CCO/N=C1\C[C@@H](CCC(=O)Nc2ncc(C)s2)C2C3CCc4cc(O)ccc4C3CC[C@]12C (stereo partly drawn) [Compound 105, 3-{(13S,15R)-17-[(E)-Ethoxyimino]-3-hydroxy-13-methyl-7,8,9,11,12,13,14,15,16,17-decahydro-6H-cyclopenta[a]phenanthren-15-yl}-N-(5-methylthiazol-2-yl)propanamide]",inhibition at 1 µM,[1],94%
same,inhibition at 1 µM,[2],3%
"Cc1cnc(NC(=O)CC[C@@H]2C/C(=N\NC(N)=O)[C@@]3(C)CCC4c5ccc(O)cc5CCC4C23)s1 (stereo partly drawn) [Compound 112, 3-{(13S,15R)-3-Hydroxy-17-[(E)-N-urea-imino]-13-methyl-7,8,9,11,12,13,14,15,16,17-decahydro-6H-cyclopenta[a]phenanthren-15-yl}-N-(5-methylthiazol-2-yl)propanamide]",inhibition at 1 µM,[1],83%
same,inhibition at 1 µM,[2],5%
"Cc1cnc(NC(=O)CC[C@@H]2c3c[nH]nc3[C@@]3(C)CCC4c5ccc(O)c([N+](=O)[O-])c5CCC4C23)s1 (stereo partly drawn) [Compound 56, 3-((6aS,10S)-2-Hydroxy-6a-methyl-4-nitro-4b,5,6,6a,8,10,10a,10b,11,12-decehydro-7,8-diaza-pentaleno[2,1-1]phenanthren-10-yl}-N-(5-methylthiazol-2-yl)propanamide]",inhibition at 1 µM,[1],97%
same,inhibition at 1 µM,[2],39%
"COCC/N=C1\C[C@@H](CCC(=O)Nc2ncc(C)s2)C2C3CCc4cc(O)c(C(C)(C)C)cc4C3CC[C@]12C (stereo partly drawn) [Compound 123, 3-{(13S,15R)-2-tert-Butyl-3-hydroxy-17-[(E)-2-methoxy-ethylimino]-13-methyl-7,8,9,11,12,13,14,15,16,17-decahydro-6H-cyclopenta[a]phenanthren-15-yl}-N-(5-methylthiazol-2-yl)propionamide]",inhibition at 1 µM,[1],94%
same,inhibition at 1 µM,[2],30%
"C=CCO/N=C1\C[C@@H](CCC(=O)Nc2ncc(C)s2)C2C3CCc4cc(O)ccc4C3CC[C@]12C (stereo partly drawn) [Compound 107, 3-{(13S,15R)-17-[(E)-Allyloxyimino]-3-hydroxyl-13-methyl-7,8,9,11,12,13,14,15,16,17-decahydro-6H-cyclopenta[a]phenanthren-15-yl}-N-(5-methylthiazol-2-yl)propanamide]",inhibition at 1 µM,[1],70%
same,inhibition at 1 µM,[2],3%
"Cc1cnc(NC(=O)CC[C@@H]2c3c[nH]nc3[C@@]3(C)CCC4c5ccccc5CCC4C23)s1 (stereo partly drawn) [Compound 52, 3-((6aS,10S)-6a-methyl-4b,5,6,6a,8,10,10a,10b,11,12-decehydro-7,8-diaza-pentaleno[2,1-1]phenanthren-10-yl}-N-(5-methylthiazol-2-yl)propanamide]",inhibition at 1 µM,[1],94%
same,inhibition at 1 µM,[2],0%
COc1cc2c(cc1/C(C)=N/O)C1CC[C@]3(C)/C(=N/O)C[C@@H](CCC(=O)Nc4ncc(C)s4)C3C1CC2 (stereo partly shown) [Compound 72],inhibition at 1 µM,[1],77%
same,inhibition at 1 µM,[2],3%
"CO/N=C1\C[C@@H](CCC(=O)Nc2ncc(C)s2)C2C3CCc4cc(O)c(CN5CCOCC5)cc4C3CC[C@]12C (stereo partly drawn) [Compound 98, 3-{(13S,15R)-3-Hydroxy-17-[(E)-methoxyimino]-13-methyl-2-morpholin-4-ylmethyl-7,8,9,11,12,13,14,15,16,17-decahydro-6H-cyclopenta[a]phenanthren-15-yl}-N-(5-methylthiazol-2-yl)propanamide]",inhibition at 1 µM,[1],57%
same,inhibition at 1 µM,[2],0%
"CO/N=C1\C[C@@H](CCC(=O)Nc2ncc(C)s2)C2C3CCc4cc(OC)ccc4C3CC[C@]12C (stereo partly drawn) [Compound 74, 3-{(13S,15R)-3-Methoxy-17-[(E)-methoxyimino]-13-methyl-7,8,9,11,12,13,14,15,16,17-decahydro-6H-cyclopenta[a]phenanthren-15-yl}-N-(5-methylthiazol-2-yl)propanamide]",inhibition at 1 µM,[1],59%
same,inhibition at 1 µM,[2],2%
"C=CCO/N=C1\C[C@@H](CCC(=O)Nc2ncc(C)s2)C2C3CCc4cc(O)c([N+](=O)[O-])cc4C3CC[C@]12C (stereo partly drawn) [Compound 108, 3-{(13S,15R)-17-[(E)-Allyloxyimino]-3-hydroxyl-13-methyl-2-nitro-7,8,9,11,12,13,14,15,16,17-decahydro-6H-cyclopenta[a]phenanthren-15-yl}-N-(5-methylthiazol-2-yl)propanamide]",inhibition at 1 µM,[1],80%
same,inhibition at 1 µM,[2],1%
"CO/N=C1\C[C@@H](CCC(=O)Nc2ncc(C)s2)C2C3CCc4cc(OC(=O)CN(C)C)ccc4C3CC[C@]12C (stereo partly drawn) [Compound 101, Dimethylamino-acetic acid (13S,15R)-17[(E)-methoxyimino]-13-methyl-15-[2-(5-methylthiazol-2-ylcarbamoyl)-ethyl]-7,8,9,11,12,13,14,15,16,17-decahydro-6H-cyclopenta[a]phenanthren-3-yl ester]",inhibition at 1 µM,[1],88%
same,inhibition at 1 µM,[2],3%
